This is an account of results in patent US5866681A, “Thrombin receptor antagonists” (priority 1995, dated 1999).

Like-named read-outs stand apart in the source and are kept apart here. *1 amine or outer side, *2 acyl side, *3 side chain or, on linkers, in order; H or OH if unused. Where a SMILES comes first, the peptide text is derived from it. [ ]: non-standard residue; d: D form. The star is where a group is joined. X10 = O=C([C@H](Cc1ccccc1)N(CCCc1ccccc1)[*:1])[*:2]; X24 = CC(C)CCN([C@@H](Cc1ccccc1)C(=O)[*:2])[*:1]; X22 = CCCCCN([C@@H](CCc1ccccc1)C(=O)[*:2])[*:1]; X16 = CCCCCN([C@@H](Cc1ccccc1)C(=O)[*:2])[*:1]; X15 = CCCCN([C@@H](Cc1ccccc1)C(=O)[*:2])[*:1]; 2Naphthylsulfonyl = O=S(=O)(c1ccc2ccccc2c1)*; Quinoline3carbonyl = O=C(c1cnc2ccccc2c1)*; X19 = CC(C)(C)CN1Cc2ccccc2C[C@H]1C(=O)*; Butanoyl(2-OPh) = CCC(Oc1ccccc1)C(=O)*; X5 = CCCCCN(C)[C@@H](Cc1ccccc1)C(=O)*; X7 = CCCCCCC(Oc1ccc2ccccc2c1)C(=O)*; X20 = CCCCC(Oc1cccc2ccccc12)C(=O)*; X4 = CCCCCN1Cc2ccccc2C[C@H]1C(=O)*; NMeR = CN[C@@H](CCCNC(=N)N)C(=O)O; Quinaldoyl = O=C(c1ccc2ccccc2n1)*; hArg = N=C(N)NCCCC[C@H](N)C(=O)O; Cha = N[C@@H](CC1CCCCC1)C(=O)O; dCha = N[C@H](CC1CCCCC1)C(=O)O; X21 = CCCCC(Oc1ccccc1)C(=O)*; X8 = O=C(C1CCc2ccccc2C1)*

The target in this experiment is T1, thrombin receptor (Homo sapiens, UniProt P25116).
T1 construct: washed human platelets are prepared from blood drawn from healthy volunteers; endogenous in cells; host or cells: washed human platelets from healthy volunteers
T1 sequence (P25116 22-425): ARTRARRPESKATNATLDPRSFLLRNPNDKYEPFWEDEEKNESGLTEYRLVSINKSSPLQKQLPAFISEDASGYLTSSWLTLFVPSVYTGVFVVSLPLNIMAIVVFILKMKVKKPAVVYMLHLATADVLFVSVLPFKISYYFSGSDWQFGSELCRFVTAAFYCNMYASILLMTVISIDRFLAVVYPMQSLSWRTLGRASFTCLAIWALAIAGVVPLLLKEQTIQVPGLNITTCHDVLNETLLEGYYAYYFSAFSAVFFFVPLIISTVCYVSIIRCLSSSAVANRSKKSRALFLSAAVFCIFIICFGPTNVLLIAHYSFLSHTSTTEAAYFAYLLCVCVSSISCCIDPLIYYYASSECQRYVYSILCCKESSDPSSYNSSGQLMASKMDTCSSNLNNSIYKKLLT
Nature of the experiment: Platelet aggregation assay for thrombin receptor antagonist activity (washed human platelets stimulated with α-thrombin). The experiment is classed as cell-based. On the procedure:
The compounds of the present invention may be tested for thrombin receptor antagonist activity by using a platelet aggregation assay. In this assay, washed human platelets are prepared from blood drawn from healthy volunteers who have not ingested any medications for two weeks prior to donation. Blood is drawn into 12.5% (vol/vol) ACD (85 mM sodium citrate, 111 mM dextrose, 71 mM citric acid) containing 0.1% (vol/vol) PGI2 (0.05 mg/mL PGI2, 100 mM Tris, pH 12). Platelet-rich plasma was obtained by centrifugation at 160×g for 20 minutes. The platelets were pelleted by centrifugation at 760×g for 10 minutes and resuspended in CGS (13 mM trisodium citrate, 120 mM sodium chloride, 30 mM dextrose, pH 7.0) containing 0.1% (vol/vol) PGI2, repelleted and resuspended in Tyrodes buffer (10 mM Hepes, 12 mM sodium bicarbonate, 138 mM sodium chloride, 5.5 mM glucose, 2.9 mM potassium chloride, 1.0 mM calcium chloride, pH 7.4) and stored at 37° C. Approximately 0.4-10 nM α-thrombin is used to stimulate platelet aggregation in control reactions which are monitored by aggregometry using an aggregometer. Candidate antagonists are added to the platelet mixture followed by the addition of thrombin in order to assess their ability to prevent thrombin-mediated aggregation.
Platelet aggregation can also be measured with washed platelets in 96-well microtiter plates as described in Fratantoni, J. C. et al., Am. J. Clin. Pathol. 94:613-617 (1990). The ability of the antagonists to block the thrombin receptor was assessed in this assay using various concentrations of antagonists. The concentration at which 50% inhibition of platelet aggregation is achieved is defined as IC50.

Setting [1] is: washed human platelets, thrombin-mediated aggregation, read-out: IC50 (concentration at which 50% inhibition of platelet aggregation is achieved).

With `CCCCC(Oc1cccc2ccccc12)C(=O)N[C@@H](CC1CCCCC1)C(=O)N[C@@H](CC1CCCCC1)C(=O)N[C@@H](CCCNC(=N)N)C(=O)N[C@@H](CCCCN)C(N)=O` (stereo partly shown) [Compound 27] (X20-[Cha][Cha]RK-NH2), the IC50 under setting [1] was found to be 5 µM.

`CCC(Oc1ccccc1)C(=O)N[C@@H](CC1CCCCC1)C(=O)N[C@@H](CC1CCCCC1)C(=O)N[C@@H](CCCNC(=N)N)C(=O)N[C@@H](CCCNC(=N)N)C(N)=O` (stereo partly shown) [Compound 51] ({Butanoyl(2-OPh)}-[Cha][Cha]RR-NH2): the IC50 under setting [1] worked out at 2.5 µM. Still for that read-out and setting: for `N=C(N)NCCC[C@H](NC(=O)[C@H](CC1CCCCC1)NC(=O)[C@H](CC1CCCCC1)NC(=O)c1cnc2ccccc2c1)C(=O)N[C@@H](CCCCN)C(N)=O` [Compound 29] (Quinoline3carbonyl-[Cha][Cha]RK-NH2) the value was above 200 µM; for `CC(C)CCN[C@@H](Cc1ccccc1)C(=O)N[C@@H](CC1CCCCC1)C(=O)N[C@@H](CC1CCCCC1)C(=O)N[C@@H](CCCNC(=N)N)C(=O)N[C@@H](CCCCN)C(=O)N1CCC[C@H]1C(=O)N[C@@H](CC(N)=O)C(=O)N[C@@H](CC(=O)O)C(=O)N[C@@H](CCCCN)C(N)=O` [Compound 1] (H-[X24][Cha][Cha]RKPNDK-NH2), 5 µM; for `CC(COc1ccccc1)N[C@@H](CC1CCCCC1)C(=O)N[C@@H](CC1CCCCC1)C(=O)N[C@@H](CCCNC(=N)N)C(=O)N[C@@H](CCCCN)C(N)=O` (stereo partly shown) [Compound 36], 7.5 µM. Compound `N=C(N)NCCC[C@H](NC(=O)[C@H](CC1CCCCC1)NC(=O)[C@H](CC1CCCCC1)NC(=O)[C@H](Cc1ccccc1)NCCCc1ccccc1)C(=O)N[C@@H](CCCCN)C(=O)N1CCC[C@H]1C(=O)N[C@@H](CC(N)=O)C(=O)N[C@@H](CC(=O)O)C(=O)N[C@@H](CCCCN)C(N)=O` [Compound 7] (H-[X10][Cha][Cha]RKPNDK-NH2) gave an IC50 of 5 µM. For the compound `CCCCCN[C@@H](Cc1ccccc1)C(=O)N[C@@H](CC1CCCCC1)C(=O)N[C@@H](CC1CCCCC1)C(=O)N[C@@H](CCCNC(=N)N)C(=O)N[C@@H](CCCCN)C(=O)N1CCC[C@H]1C(=O)N[C@@H](CC(N)=O)C(=O)N[C@@H](CC(=O)O)C(=O)N[C@@H](CCCCN)C(N)=O` [Compound 5] (H-[X16][Cha][Cha]RKPNDK-NH2), the IC50 under setting [1] is 2.5 µM. Still for that read-out and setting: for `CCC(Oc1ccccc1)C(=O)N[C@@H](CC1CCCCC1)C(=O)N[C@@H](CC1CCCCC1)C(=O)N[C@@H](CCCCNC(=N)N)C(=O)N[C@@H](CCCCN)C(N)=O` (stereo partly shown) [Compound 47] ({Butanoyl(2-OPh)}-[Cha][Cha][hArg]K-NH2) the value was 2.5 µM; for `CC(C)(C)CN1Cc2ccccc2C[C@H]1C(=O)N[C@@H](CC1CCCCC1)C(=O)N[C@@H](CC1CCCCC1)C(=O)N[C@@H](CCCNC(=N)N)C(=O)N[C@@H](CCCCN)C(N)=O` [Compound 13] (X19-[Cha][Cha]RK-NH2), 5 µM. Compound `CCCCCN(C)[C@@H](Cc1ccccc1)C(=O)N[C@@H](CC1CCCCC1)C(=O)N[C@H](CC1CCCCC1)C(=O)N[C@@H](CCCNC(=N)N)C(=O)N[C@@H](CCCCN)C(N)=O` [Compound 43] (X5-[Cha][dCha]RK-NH2) had an IC50 of 15 µM. In the case of `N=C(N)NCCC[C@H](NC(=O)[C@H](CC1CCCCC1)NC(=O)[C@H](CC1CCCCC1)NC(=O)C1CCc2ccccc2C1)C(=O)N[C@@H](CCCCN)C(N)=O` (stereo partly shown) [Compound 31] (X8-[Cha][Cha]RK-NH2), under setting [1], the IC50 was above 200 µM. As for `CCCCCN[C@@H](CCc1ccccc1)C(=O)N[C@@H](CC1CCCCC1)C(=O)N[C@@H](CC1CCCCC1)C(=O)N[C@@H](CCCNC(=N)N)C(=O)N[C@@H](CCCCN)C(N)=O` [Compound 9] (H-[X22][Cha][Cha]RK-NH2), the IC50 under setting [1] was 15 µM. The same measure, in the same setting: for `N=C(N)NCCC[C@H](NC(=O)[C@H](CC1CCCCC1)NC(=O)[C@H](CC1CCCCC1)NC(=O)c1ccc2ccccc2n1)C(=O)N[C@@H](CCCCN)C(N)=O` [Compound 28] (Quinaldoyl-[Cha][Cha]RK-NH2) the value was 30 µM. As to `CCCCCN[C@@H](Cc1ccccc1)C(=O)N[C@H](CC(C)C)C(=O)N[C@@H](CC1CCCCC1)C(=O)N[C@@H](CCCNC(=N)N)C(=O)N[C@@H](CCCCN)C(N)=O` [Compound 45] (H-[X16][dL][Cha]RK-NH2), under setting [1], the IC50 is 5 µM. Same read-out and setting: for `CCC(Oc1ccccc1)C(=O)N[C@@H](CC1CCCCC1)C(=O)N[C@@H](CC1CCCCC1)C(=O)N[C@@H](CCCCNC(=N)N)C(=O)N[C@@H](CCCNC(=N)N)C(N)=O` (stereo partly shown) [Compound 55] ({Butanoyl(2-OPh)}-[Cha][Cha][hArg]R-NH2) the value was 1 µM. The same measure, in the same setting: for `CCCCC(Oc1ccccc1)C(=O)N[C@@H](CC1CCCCC1)C(=O)N[C@@H](CC1CCCCC1)C(=O)N[C@@H](CCCNC(=N)N)C(=O)N[C@@H](CCCCN)C(N)=O` (stereo partly shown) [Compound 24] (X21-[Cha][Cha]RK-NH2) the value was 15 µM. The compound `CCCCCN(C)[C@@H](Cc1ccccc1)C(=O)N[C@@H](CC1CCCCC1)C(=O)N[C@@H](CC1CCCCC1)C(=O)N[C@@H](CCCNC(=N)N)C(=O)N[C@@H](CCCCN)C(N)=O` [Compound 15] (X5-[Cha][Cha]RK-NH2) registered an IC50 of 10 µM. `CCCCCC/C(=C\c1ccccc1)CN[C@@H](CC1CCCCC1)C(=O)N[C@@H](CC1CCCCC1)C(=O)N[C@@H](CCCNC(=N)N)C(=O)N[C@@H](CCCCN)C(N)=O` [Compound 26]: the IC50 under setting [1] was 7.5 µM. On the same count and under the same terms, for `CCCCN[C@@H](Cc1ccccc1)C(=O)N[C@@H](CC1CCCCC1)C(=O)N[C@@H](CC1CCCCC1)C(=O)N[C@@H](CCCNC(=N)N)C(=O)N[C@@H](CCCCN)C(=O)N1CCC[C@H]1C(=O)N[C@@H](CC(N)=O)C(=O)N[C@@H](CC(=O)O)C(=O)N[C@@H](CCCCN)C(N)=O` [Compound 4] (H-[X15][Cha][Cha]RKPNDK-NH2) the value was 5 µM. In the case of `CCC(Oc1ccccc1)C(=O)N[C@@H](CC1CCCCC1)C(=O)N[C@@H](CC1CCCCC1)C(=O)N[C@@H](CCCNC(=N)N)C(=O)N[C@@H](CCCCN)C(N)=O` (stereo partly drawn) [Compound 10, 2-Phenoxybutyryl-Cha-Cha-Arg-Lys-NH2] ({Butanoyl(2-OPh)}-[Cha][Cha]RK-NH2), the IC50 under setting [1] stood at 10 µM.

Take `CCCCCN1Cc2ccccc2C[C@H]1C(=O)N[C@@H](CC1CCCCC1)C(=O)N[C@@H](CC1CCCCC1)C(=O)N[C@@H](CCCNC(=N)N)C(=O)N[C@@H](CCCCN)C(N)=O` [Compound 11, (N-n-pentyl-Tic)-Cha-Cha-Arg-Lys-NH2] (X4-[Cha][Cha]RK-NH2): the IC50 under setting [1] was determined as 2.5 µM.

As for `CCC(Oc1ccccc1)C(=O)N[C@@H](Cc1ccccc1)C(=O)N[C@@H](CC1CCCCC1)C(=O)N[C@@H](CCCCNC(=N)N)C(=O)N[C@@H](CCCNC(=N)N)C(N)=O` (stereo partly shown) [Compound 57] ({Butanoyl(2-OPh)}-F[Cha][hArg]R-NH2), under setting [1], the IC50 stood at 2 µM. As for `CCCCCCC(Oc1ccc2ccccc2c1)C(=O)N[C@@H](CC1CCCCC1)C(=O)N[C@@H](CC1CCCCC1)C(=O)N[C@@H](CCCNC(=N)N)C(=O)N[C@@H](CCCCN)C(N)=O` (stereo partly shown) [Compound 23] (X7-[Cha][Cha]RK-NH2), the IC50 under setting [1] turned out to be 5 µM. `CCC(Oc1ccccc1)C(=O)N[C@@H](CC1CCCCC1)C(=O)N[C@@H](CC1CCCCC1)C(=O)N(C)[C@@H](CCCNC(=N)N)C(=O)N[C@@H](CCCNC(=N)N)C(N)=O` (stereo partly shown) [Compound 54] ({Butanoyl(2-OPh)}-[Cha][Cha][NMeR]R-NH2): the IC50 under setting [1] was found to be 0.5 µM. On the same count and under the same terms, for `N=C(N)NCCC[C@H](NC(=O)[C@H](CC1CCCCC1)NC(=O)[C@H](CC1CCCCC1)NS(=O)(=O)c1ccc2ccccc2c1)C(=O)N[C@@H](CCCCN)C(N)=O` [Compound 38] (2Naphthylsulfonyl-[Cha][Cha]RK-NH2) the value was 10 µM.
